Measurements from publication PMC5725799, “Comparative binding properties of the tau PET tracers THK5117, THK5351, PBB3, and T807 in postmortem Alzheimer brains” (Alzheimer's Research & Therapy, 2017).

System: tau
Assay: ^11C-PBB3 autoradiography and competition on large frozen AD brain sections
Format: binding, human
Set-up: NSP Binding: unit not given here
Description: Adjacent sections were used for autoradiography with ^11C-THK5351, ^11C-PBB3, and ^18F-T807. The frozen sections were allowed to reach room temperature, incubated for 30 minutes at room temperature with ^11C-THK5351 (0.4–0.56 nM; […]; specific activity 442–794 GBq/μmol) or for 55 minutes at room temperature with ^18F-T807 (0.04 nM; specific activity 281 GBq/μmol). We used 10 μM unlabeled THK5351, 10 μM unlabeled PBB3, and 10 μM unlabeled T807 to determine the extent of nonspecific binding for each tracer. The sections were rinsed three times for 5 minutes each with cold binding buffer, followed by a quick dip in cold distilled water. The sections were dried and exposed for 1 h (for ^11C-THK5351 and ^11C-PBB3) or for 3 h (^18 F-T807) on a phosphor imaging plate and then read using the BAS-2500 phosphor imager.
For all the autoradiography studies, the regions of interest were drawn manually on the autoradiogram using multigauge software and were used for the semiquantitative analyses. Photostimulated luminescence per square millimeter (PSL/mm^2) was transformed to picomoles per cubic millimeter using a transformation factor that took into account the resolution of the image, the pixel value for the concentration of ligand, and the thickness of the sections: (PSL/mm^2 value)/([pixel value per pmol] × [(resolution/1000)^2] × [cryosection thickness]/1000).

[1] = AD1, Basal ganglia, vs Unlabelled PBB3
[2] = AD1, Basal ganglia, vs Unlabelled T807
[3] = AD1, Frontal cortex, vs Unlabelled PBB3
[4] = AD1, Frontal cortex, vs Unlabelled T807
[5] = AD1, Frontal cortex, vs Unlabelled THK5351
[6] = AD1, Insula, vs Unlabelled PBB3
[7] = AD1, Insula, vs Unlabelled T807
[8] = AD1, Temporal cortex, vs Unlabelled PBB3
[9] = AD1, Temporal cortex, vs Unlabelled T807
[10] = AD1, Temporal cortex, vs Unlabelled THK5351
[11] = AD2, Basal ganglia, vs Unlabelled PBB3
[12] = AD2, Basal ganglia, vs Unlabelled T807
[13] = AD2, Basal ganglia, vs Unlabelled THK5351
[14] = AD2, Frontal cortex, vs Unlabelled PBB3
[15] = AD2, Frontal cortex, vs Unlabelled T807
[16] = AD2, Frontal cortex, vs Unlabelled THK5351
[17] = AD2, Insula, vs Unlabelled PBB3
[18] = AD2, Insula, vs Unlabelled T807
[19] = AD2, Insula, vs Unlabelled THK5351
[20] = AD2, Temporal cortex, vs Unlabelled PBB3
[21] = AD2, Temporal cortex, vs Unlabelled T807
[22] = AD2, Temporal cortex, vs Unlabelled THK5351
[23] = AD3, Basal ganglia, vs Unlabelled PBB3
[24] = AD3, Basal ganglia, vs Unlabelled T807
[25] = AD3, Basal ganglia, vs Unlabelled THK5351
[26] = AD3, Frontal cortex, vs Unlabelled PBB3
[27] = AD3, Frontal cortex, vs Unlabelled T807
[28] = AD3, Frontal cortex, vs Unlabelled THK5351
[29] = AD3, Insula, vs Unlabelled PBB3
[30] = AD3, Insula, vs Unlabelled T807
[31] = AD3, Insula, vs Unlabelled THK5351
[32] = AD3, Temporal cortex, vs Unlabelled PBB3
[33] = AD3, Temporal cortex, vs Unlabelled T807
[34] = AD3, Temporal cortex, vs Unlabelled THK5351

## [11CH3]Nc1ccc(/C=C/C=C/c2nc3ccc(O)cc3s2)cn1 [^11C-PBB3, (5-((1E,3E)-4-(6-[^11C]methylamino)pyridin-3-yl)buta-1,3-dien-1-yl)benzo[d]thiazol-6-ol]
[1]
  % of specific binding: 50%
  NSP Binding: 2849
  Specific Binding: 2796
  Total Binding: 5645
[2]
  % of specific binding: 20%
  NSP Binding: 3201
  Specific Binding: 802
  Total Binding: 4004
[3]
  % of specific binding: 51%
  NSP Binding: 3317
  Specific Binding: 3433
  Total Binding: 6750
[4]
  % of specific binding: 17%
  NSP Binding: 3919
  Specific Binding: 782
  Total Binding: 4701
[5]
  % of specific binding: 22%
  NSP Binding: 1579
  Specific Binding: 439
  Total Binding: 2018
[6]
  % of specific binding: 45%
  NSP Binding: 3353
  Specific Binding: 2690
  Total Binding: 6043
[7]
  % of specific binding: 13%
  NSP Binding: 3842
  Specific Binding: 566
  Total Binding: 4409
[8]
  % of specific binding: 41%
  NSP Binding: 3425
  Specific Binding: 2352
  Total Binding: 5777
[9]
  % of specific binding: 4%
  NSP Binding: 4009
  Specific Binding: 178
  Total Binding: 4187
[10]
  % of specific binding: 28%
  NSP Binding: 1569
  Specific Binding: 596
  Total Binding: 2164
[11]
  % of specific binding: 47%
  NSP Binding: 3052
  Specific Binding: 2700
  Total Binding: 5752
[12]
  % of specific binding: 21%
  NSP Binding: 2790
  Specific Binding: 751
  Total Binding: 3541
[13]
  % of specific binding: 19%
  NSP Binding: 1517
  Specific Binding: 367
  Total Binding: 1884
[14]
  % of specific binding: 51%
  NSP Binding: 3051
  Specific Binding: 3187
  Total Binding: 6238
[15]
  % of specific binding: 15%
  NSP Binding: 3252
  Specific Binding: 595
  Total Binding: 3847
[16]
  % of specific binding: 17%
  NSP Binding: 1619
  Specific Binding: 341
  Total Binding: 1960
[17]
  % of specific binding: 48%
  NSP Binding: 3100
  Specific Binding: 2827
  Total Binding: 5927
[18]
  % of specific binding: 21%
  NSP Binding: 2838
  Specific Binding: 748
  Total Binding: 3585
[19]
  % of specific binding: 20%
  NSP Binding: 1580
  Specific Binding: 400
  Total Binding: 1979
[20]
  % of specific binding: 59%
  NSP Binding: 2988
  Specific Binding: 4222
  Total Binding: 7210
[21]
  % of specific binding: 12%
  NSP Binding: 3425
  Specific Binding: 448
  Total Binding: 3874
[22]
  % of specific binding: 36%
  NSP Binding: 1506
  Specific Binding: 831
  Total Binding: 2336
[23]
  % of specific binding: 48%
  NSP Binding: 2989
  Specific Binding: 2786
  Total Binding: 5775
[24]
  % of specific binding: 13%
  NSP Binding: 2721
  Specific Binding: 422
  Total Binding: 3143
[25]
  % of specific binding: 23%
  NSP Binding: 1577
  Specific Binding: 481
  Total Binding: 2058
[26]
  % of specific binding: 56%
  NSP Binding: 3132
  Specific Binding: 4039
  Total Binding: 7171
[27]
  % of specific binding: 21%
  NSP Binding: 3247
  Specific Binding: 879
  Total Binding: 4125
[28]
  % of specific binding: 27%
  NSP Binding: 1832
  Specific Binding: 678
  Total Binding: 2511
[29]
  % of specific binding: 46%
  NSP Binding: 3401
  Specific Binding: 2848
  Total Binding: 6249
[30]
  % of specific binding: 8%
  NSP Binding: 3261
  Specific Binding: 294
  Total Binding: 3555
[31]
  % of specific binding: 18%
  NSP Binding: 1815
  Specific Binding: 405
  Total Binding: 2220
AD3, Temporal cortex, 0.4nM
  Total Binding: 6400 pmol/mm^3
[32]
  % of specific binding: 50%
  NSP Binding: 3203
  Specific Binding: 3207
  Total Binding: 6409
[33]
  % of specific binding: 11%
  NSP Binding: 3217
  Specific Binding: 396
  Total Binding: 3612
[34]
  % of specific binding: 18%
  NSP Binding: 1818
  Specific Binding: 397
  Total Binding: 2215
